The source of these data is US7531534B2, “Heterocyclic antiviral compounds” (Roche Palo Alto LLC, priority 2006, dated 2009).

Some results are limits rather than exact numbers.

The term IC50 denotes the concentration at which inhibition is half-maximal. Broadly, the melting point is the temperature, or range, at which the solid turns liquid.

T1 sequence (P26663 2420-2989): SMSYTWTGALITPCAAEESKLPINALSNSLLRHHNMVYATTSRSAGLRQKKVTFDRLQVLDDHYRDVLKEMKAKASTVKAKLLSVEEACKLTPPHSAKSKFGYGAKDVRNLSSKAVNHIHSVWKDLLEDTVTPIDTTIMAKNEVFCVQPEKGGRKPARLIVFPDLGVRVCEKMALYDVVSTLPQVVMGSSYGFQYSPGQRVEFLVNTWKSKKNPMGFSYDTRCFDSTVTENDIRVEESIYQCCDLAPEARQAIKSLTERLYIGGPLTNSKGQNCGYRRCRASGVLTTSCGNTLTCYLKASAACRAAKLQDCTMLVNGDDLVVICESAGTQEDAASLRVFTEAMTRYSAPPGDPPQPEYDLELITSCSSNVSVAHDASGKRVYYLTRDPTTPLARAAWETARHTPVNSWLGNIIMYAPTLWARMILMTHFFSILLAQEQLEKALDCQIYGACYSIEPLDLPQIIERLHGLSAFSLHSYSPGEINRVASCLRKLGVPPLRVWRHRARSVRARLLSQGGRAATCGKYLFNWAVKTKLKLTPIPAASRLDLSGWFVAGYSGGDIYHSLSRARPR

One series concerns the target T1, HCV NS5B570n-BK (Hepatitis C virus genotype 1b, UniProt P26663).
T1 construct: histidine tag (N); made in house; host or cells: E. coli strain M15
As to the kind of experiment: HCV NS5B RNA Polymerase Activity. It counts as biochemical.
Conditions: not given
As to the method: The enzymatic activity of HCV NS5B570n-BK is measured as incorporation of radiolabeled nucleotide monophosphates into acid insoluble RNA products. Unincorporated radiolabel substrate is removed by filtration and scintillant is added to the washed and dried filter plate containing radiolabeled RNA product. The light emitted by the scintillant is proportional to the amount of RNA product generated by NS5B570n-BK at the endpoint of the reaction.
The N-terminally histidine tagged HCV polymerase, derived from HCV BK strain, genotype 1b (NS5B570n-BK) contains a 21 amino acid deletion at the C-terminus relative to the full-length HCV polymerase and is purified from E. coli strain M15. The construct containing the coding sequence of HCV BK strain amino acid residues 2421-2999 (GenBank accession number M58335) downstream of a […] promoter expression cassette was inserted into plasmid constructs. The plasmid constructs are transformed in E. coli and colonies are inoculated and grown overnight in 10 L of Terrific broth (Tartoff and Hobbs) supplemented with 100 μg/mL ampicillin at 37° C. Protein expression is induced by addition of 1 mM isopropyl-β-D-thiogalactopyranoside (IPTG), when optical densities reaches between 1.5 and 3.5 OD600 and the culture is then incubated for 16- to 18 h at 22° C. NS5B570n-BK is purified to homogeneity using a three step protocol including subsequent column chromatography on Ni-NTA, SP-Sepharose HP and Superdex 75 resins. […]
The amount of light emitted from the scintillant is converted to counts per minute (CPM) on a Topcount® plate reader (Perkin-Elmer, Energy Range: Low, Efficiency Mode: Normal, Count Time: 1 min, Background Subtract: none, Cross talk reduction: Off).
Data is analyzed with GraphPad® Prism® and/or Microsoft® Excel®. […] All data is expressed as a percentage of the positive control. […]
For the compound `CC(C)(C)[C@H]1C(O)=C(C2=C(Cl)S(=O)(=O)c3cc(NS(C)(=O)=O)ccc3N2)C(=O)N1Cc1ccc(F)cc1` [Compound I-3, N-{3-[(S)-5-tert-Butyl-1-(4-fluoro-benzyl)-4-hydroxy-2-oxo-2,5-dihydro-1H-pyrrol-3-yl]-2-chloro-1,1-dioxo-1,4-dihydro-1λ^6-benzo[1,4]thiazin-7-yl}-methanesulfonamide], inhibition was half-maximal at 2 nM (IC50). The same measure, in the same setting: the value for `CC(C)(C)C1C(O)=C(C2=C(C#N)S(=O)(=O)c3cc(NS(C)(=O)=O)ccc3N2)C(=O)N1Cc1ccc(F)cc1` (stereo not shown) [Compound I-19, N-{3-[5-tert-Butyl-1-(4-fluoro-benzyl)-4-hydroxy-2-oxo-2,5-dihydro-1H-pyrrol-3-yl]-2-cyano-1,1-dioxo-1,4-dihydro-1λ^6-benzo[1,4]thiazin-7-yl}-methanesulfonamide] was 6 nM.

The series is the same for the next values; noted with them: NS5B570n-BK, poly A:oligo U16, tritiated UTP incorporation; read-out: Polymerase Assay IC50.
`Cc1cc(CN2C(=O)C(C3=C(F)S(=O)(=O)c4cc(NS(C)(=O)=O)ccc4N3)=C(O)[C@@H]2C(C)(C)C)ccc1F` [Compound I-18, N-{3-[(S)-5-tert-Butyl-1-(4-fluoro-3-methyl-benzyl)-4-hydroxy-2-oxo-2,5-dihydro-1H-pyrrol-3-yl]-2-fluoro-1,1-dioxo-1,4-dihydro-1λ^6-benzo[1,4]thiazin-7-yl}-methanesulfonamide]: the IC50 turned out to be 5 nM.

The next series concerns Renilla luciferase HCV replicon cells (2209-23). The series is described as follows: Renilla luciferase Assay (HCV replicon). It counts as cell-based. The conditions noted are these: Huh-7, 72 h; replicon cells 2209-23 (Huh7), three days incubation; read-out: R. luciferase Activity IC50. In general terms: A replicon is a self-replicating genome or part of one, used to study replication in cells.
With `CC(C)(C)[C@H]1C(O)=C(C2=C(Cl)S(=O)(=O)c3cc(NS(C)(=O)=O)ccc3N2)C(=O)N1Cc1ccc(F)cc1` [Compound I-3, N-{3-[(S)-5-tert-Butyl-1-(4-fluoro-benzyl)-4-hydroxy-2-oxo-2,5-dihydro-1H-pyrrol-3-yl]-2-chloro-1,1-dioxo-1,4-dihydro-1λ^6-benzo[1,4]thiazin-7-yl}-methanesulfonamide], the IC50 worked out at 4 nM. The same measure, in the same setting: the value for `Cc1cc(CN2C(=O)C(C3=C(F)S(=O)(=O)c4cc(NS(C)(=O)=O)ccc4N3)=C(O)[C@@H]2C(C)(C)C)ccc1F` [Compound I-18, N-{3-[(S)-5-tert-Butyl-1-(4-fluoro-3-methyl-benzyl)-4-hydroxy-2-oxo-2,5-dihydro-1H-pyrrol-3-yl]-2-fluoro-1,1-dioxo-1,4-dihydro-1λ^6-benzo[1,4]thiazin-7-yl}-methanesulfonamide] was 16 nM.

As to `CC(C)(C)C1C(O)=C(C2=C(C#N)S(=O)(=O)c3cc(NS(C)(=O)=O)ccc3N2)C(=O)N1Cc1ccc(F)cc1` (stereo not shown) [Compound I-19, N-{3-[5-tert-Butyl-1-(4-fluoro-benzyl)-4-hydroxy-2-oxo-2,5-dihydro-1H-pyrrol-3-yl]-2-cyano-1,1-dioxo-1,4-dihydro-1λ^6-benzo[1,4]thiazin-7-yl}-methanesulfonamide], the IC50 came to 16 nM.

Tested on in the next series: not given
Assay: not given
Conditions: not given
`CC1=C(C2=C(O)[C@H](C(C)(C)C)N(Cc3ccc(F)cc3)C2=O)Nc2ccc(NS(C)(=O)=O)cc2S1(=O)=O` displayed a melting point of 170 to 174 °C. On the same count and under the same terms, the value for `CCS(=O)(=O)Nc1ccc2c(c1)S(=O)(=O)C(Cl)=C(C1=C(O)[C@H](C(C)(C)C)N(Cc3ccc(F)c(Cl)c3)C1=O)N2` was 140 to 144 °C; that for `CC(C)(C)[C@H]1C(O)=C(C2=C(Cl)S(=O)(=O)c3cc(NS(=O)(=O)C4CC4)ccc3N2)C(=O)N1Cc1ccc(F)c(Cl)c1` was 137 to 141 °C.

For the compound `CCS(=O)(=O)Nc1ccc2c(c1)S(=O)(=O)C(Cl)=C(C1=C(O)[C@H](C(C)(C)C)N(CCC(C)C)C1=O)N2`, the melting point lay in the range of 125 to 165 °C. Same read-out and setting: the value for `CC(C)(C)[C@H]1C(O)=C(C2=C(Cl)S(=O)(=O)c3cc(NS(C)(=O)=O)ccc3N2)C(=O)N1Cc1ccccc1` was 148 to 152 °C; that for `CC(C)(C)[C@H]1C(O)=C(C2=C(Cl)S(=O)(=O)c3cc(NS(C)(=O)=O)ccc3N2)C(=O)N1CCC1CCCC1` was 137 to 141 °C. Same read-out and setting: the value for `COc1cc(CN2C(=O)C(C3=C(Cl)S(=O)(=O)c4cc(NS(C)(=O)=O)ccc4N3)=C(O)[C@@H]2C(C)(C)C)ccc1F` was 139 to 144 °C; that for `CC(C)CCN1C(=O)C(C2=C(Cl)S(=O)(=O)c3cc(NS(C)(=O)=O)ccc3N2)=C(O)[C@@H]1C(C)(C)C` was 142 to 145 °C.

The compound `CN(C)C(=O)C1=C(C2=C(O)[C@H](C(C)(C)C)N(Cc3ccc(F)cc3)C2=O)Nc2ccc(NS(C)(=O)=O)cc2S1(=O)=O` gave a melting point of 140 °C.

As to `COc1cc(CN2C(=O)C(C3=C(C#N)S(=O)(=O)c4cc(NS(C)(=O)=O)ccc4N3)=C(O)C2C(C)(C)C)ccc1F` (stereo not shown), the melting point came out at 218 °C. Still for that read-out and setting: the figure for `Cc1cc(CN2C(=O)C(C3=C(C#N)S(=O)(=O)c4cc(NS(C)(=O)=O)ccc4N3)=C(O)C2C(C)(C)C)ccc1F` (stereo not shown) is greater than 250 °C. Take `CC(C)CCN1C(=O)C(C2=C(C#N)S(=O)(=O)c3cc(NS(C)(=O)=O)ccc3N2)=C(O)C1C(C)(C)C` (stereo not shown): the melting point is greater than 250 °C.

In turn, `CC(C)(C)C1C(O)=C(C2=C(C#N)S(=O)(=O)c3cc(NS(C)(=O)=O)ccc3N2)C(=O)N1CCC1CCCC1` (stereo not shown) came in with a melting point greater than 250 °C. Same read-out and setting: the figure for `CC(C)CCN1C(=O)C(C2=C(C(N)=O)S(=O)(=O)c3cc(NS(C)(=O)=O)ccc3N2)=C(O)[C@@H]1C(C)(C)C` is 150 to 155 °C; for `Cc1cc(CN2C(=O)C(C3=C(C(N)=O)S(=O)(=O)c4cc(NS(C)(=O)=O)ccc4N3)=C(O)[C@@H]2C(C)(C)C)ccc1F` it is 168 to 172 °C. Same read-out and setting: the value for `CC1=C(C2=C(O)[C@H](C(C)(C)C)N(CCC(C)C)C2=O)Nc2ccc(NS(C)(=O)=O)cc2S1(=O)=O` was 210 to 215 °C; that for `CC(C)(C)[C@H]1c2oc(=O)c3c(c2C(=O)N1Cc1ccc(F)cc1)Nc1ccc(NS(C)(=O)=O)cc1S3(=O)=O` was 120 °C. Same read-out and setting: the figure for `CCS(=O)(=O)Nc1ccc2c(c1)S(=O)(=O)C(Cl)=C(C1=C(O)[C@H](C(C)(C)C)N(Cc3ccc(F)cc3)C1=O)N2` is 136 to 140 °C; for `CC(C)(C)[C@H]1C(O)=C(C2=C(Cl)S(=O)(=O)c3cc(NS(=O)(=O)C4CC4)ccc3N2)C(=O)N1Cc1ccc(F)cc1` it is 137 to 141 °C; for `Cc1cc(CN2C(=O)C(C3=C(Cl)S(=O)(=O)c4cc(NS(C)(=O)=O)ccc4N3)=C(O)[C@@H]2C(C)(C)C)ccc1F` it is 140 to 146 °C. Compound `CCS(=O)(=O)Nc1ccc2c(c1)S(=O)(=O)C(Cl)=C(C1=C(O)[C@H](C(C)(C)C)N(Cc3ccc(F)c(C)c3)C1=O)N2` gave a melting point of 130 to 135 °C. On the same count and under the same terms, the value for `Cc1cc(CN2C(=O)C(C3=C(Cl)S(=O)(=O)c4cc(NS(=O)(=O)C5CC5)ccc4N3)=C(O)[C@@H]2C(C)(C)C)ccc1F` was 127 to 131 °C; that for `CC(C)(C)[C@H]1C(O)=C(C2=C(Cl)S(=O)(=O)c3cc(NS(C)(=O)=O)ccc3N2)C(=O)N1Cc1ccc(F)c(Cl)c1` was 147 to 151 °C; that for `CC(C)(C)[C@H]1C(O)=C(C2=C(Cl)S(=O)(=O)c3cc(NS(C)(=O)=O)ccc3N2)C(=O)N1Cc1ccc(F)cc1` [Compound I-3, N-{3-[(S)-5-tert-Butyl-1-(4-fluoro-benzyl)-4-hydroxy-2-oxo-2,5-dihydro-1H-pyrrol-3-yl]-2-chloro-1,1-dioxo-1,4-dihydro-1λ^6-benzo[1,4]thiazin-7-yl}-methanesulfonamide] was 144 to 148 °C.

For a further series, the system named is HCV.
Assay: not given
Conditions: ribavirin monotherapy; cited from earlier work.
With `NC(=O)c1ncn([C@@H]2O[C@H](CO)[C@@H](O)[C@H]2O)n1` [ribavirin, 1-((2R,3R,4S,5R)-3,4-Dihydroxy-5-hydroxymethyl-tetrahydro-furan-2-yl)-1H-[1,2,4]triazole-3-carboxylic acid amide], the “patients in whom serum amino transferase levels are reduced to normal” value is reported as 40%.
